Reference: paper PMC12655172, “Borylated 5-Membered Ring Iminosugars: Synthesis and Biological Evaluation for Glycosidase Inhibition and Anticancer Properties for Application in Boron Neutron Capture Therapy (BNCT)—Part 2” (Pharmaceuticals, 2025)

Experiments:
[1] = tested on: β-D-glucosidase (almond); test: Glycosidase inhibition (Table 3 panel); format: biochemical; settings: 1 mg/mL aqueous solution; run in water
Description: (§1) All enzymes and para-nitrophenyl substrates were purchased from Sigma. Enzymes were assayed at 27 °C in citric acid (0.1 M)/disodium hydrogen phosphate (0.2 M) buffers at the optimum pH for the enzyme. The incubation mixture consisted of […] of 1 mg/mL aqueous solution of extract and […] of the appropriate […] para-nitrophenyl substrate made up in buffer at the optimum pH for the enzyme. The reactions were stopped by addition of […] 0.4 M glycine (pH 10.4) during the exponential phase of the reaction, which had been determined at the beginning using uninhibited assays in which water replaced the inhibitor. Final absorbances were read at 405 nm using a Versamax microplate reader (Molecular Devices, Wokingham, UK). Assays were carried out in triplicate, and the values given are means of the three replicates per assay. All reactions were run in water.

[2] = tested on: T1, α-D-mannosidase (Jack bean); test: Glycosidase inhibition (Table 3 panel); format: biochemical; settings: 1 mg/mL aqueous solution; run in water
T1 construct: purchased Sigma-Aldrich; host or cells: Jack bean
Description: as §1

[3] = tested on: β-D-glucuronidase (bovine liver); test: Glycosidase inhibition (Table 3 panel); format: biochemical; settings: 1 mg/mL aqueous solution; run in water
Description: as §1

[4] = tested on: N-acetyl-β-D-glucosaminidase (bovine kidney); test: Glycosidase inhibition (Table 3 panel); format: biochemical; settings: 1 mg/mL aqueous solution; run in water
Description: as §1

[5] = Sample appearance on sample preparation in water; format: physicochemical; settings: 1 mL of water was added to 1 mg solid
[6] = tested on: several glycosidases; test: Glycosidase inhibition, whole Table 3 panel; format: biochemical; settings: Table 3 assay conditions
Description: as §1

[7] = tested on: MCF10A (non-tumour derived normal breast cell line); test: Cancer screening, MTT growth inhibition; format: cell-based; settings: 72 h; for inhibition at 25 µM / DOSE SCREEN percentage (%) cell growth inhibition MCF10A Breast (normal): 25 µM of drug; for inhibition at 25 µM: read-out: DOSE SCREEN percentage (%) cell growth inhibition MCF10A Breast (normal)
[8] = tested on: T2, trehalase (porcine kidney); test: Glycosidase inhibition (Table 2 panel); format: biochemical
T2 construct: purchased Sigma-Aldrich; host or cells: porcine kidney

[9] = tested on: T3, α-L-fucosidase (bovine kidney); test: Glycosidase inhibition (Table 2 panel); format: biochemical
T3 construct: purchased Sigma-Aldrich; host or cells: bovine kidney
How it was run: (§2)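 Chromogenic hydrolysis assay: each glycosidase acted on the appropriate para-nitrophenyl glycoside […] under its optimal pH. Addition of Na2CO3 […] ended the reaction before p-nitrophenol was measured at 400 nm.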

[10] = tested on: α-L-rhamnosidase (P. decumbens); test: Glycosidase inhibition (Table 2 panel); format: biochemical
How it was run: as §2

[11] = target: T4, β-D-glucosidase (bovine liver) (Bos taurus, UniProt F1MNT6); test: Glycosidase inhibition (Table 2 panel); format: biochemical
T4 sequence (F1MNT6 1-469): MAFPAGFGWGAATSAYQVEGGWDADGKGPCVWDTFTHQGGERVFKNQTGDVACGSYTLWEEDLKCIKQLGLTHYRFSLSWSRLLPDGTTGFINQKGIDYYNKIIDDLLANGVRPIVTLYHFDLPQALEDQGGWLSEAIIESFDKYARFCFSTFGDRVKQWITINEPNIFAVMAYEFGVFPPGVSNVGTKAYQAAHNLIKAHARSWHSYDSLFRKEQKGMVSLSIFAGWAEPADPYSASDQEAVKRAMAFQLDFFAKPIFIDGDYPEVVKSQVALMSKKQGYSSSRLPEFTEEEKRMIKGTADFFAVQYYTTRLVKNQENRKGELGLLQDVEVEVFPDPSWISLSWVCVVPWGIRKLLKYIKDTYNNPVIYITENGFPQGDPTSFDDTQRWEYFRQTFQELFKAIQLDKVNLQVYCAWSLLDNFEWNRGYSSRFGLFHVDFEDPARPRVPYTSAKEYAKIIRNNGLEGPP
How it was run: as §2

[12] = tested on: α-D-glucosidase (rat intestinal maltase); test: Glycosidase inhibition (Table 2 panel); format: biochemical
[13] = target: T5, β-D-galactosidase (bovine liver) (Bos taurus, UniProt F1MNT6); test: Glycosidase inhibition (Table 2 panel); format: biochemical
T5 sequence (F1MNT6 1-469): T4 sequence (F1MNT6 1-469)
How it was run: as §2

[14] = tested on: β-D-glucuronidase (bovine liver); test: Glycosidase inhibition (Table 2 panel); format: biochemical
How it was run: as §2

[15] = target: T6, α-D-glucosidase (yeast) (Saccharomyces cerevisiae, UniProt P53341); test: Glycosidase inhibition (Table 3 panel); format: biochemical; settings: 1 mg/mL aqueous solution, run in water
T6 construct: purchased Sigma-Aldrich
T6 sequence (P53341 whole entry): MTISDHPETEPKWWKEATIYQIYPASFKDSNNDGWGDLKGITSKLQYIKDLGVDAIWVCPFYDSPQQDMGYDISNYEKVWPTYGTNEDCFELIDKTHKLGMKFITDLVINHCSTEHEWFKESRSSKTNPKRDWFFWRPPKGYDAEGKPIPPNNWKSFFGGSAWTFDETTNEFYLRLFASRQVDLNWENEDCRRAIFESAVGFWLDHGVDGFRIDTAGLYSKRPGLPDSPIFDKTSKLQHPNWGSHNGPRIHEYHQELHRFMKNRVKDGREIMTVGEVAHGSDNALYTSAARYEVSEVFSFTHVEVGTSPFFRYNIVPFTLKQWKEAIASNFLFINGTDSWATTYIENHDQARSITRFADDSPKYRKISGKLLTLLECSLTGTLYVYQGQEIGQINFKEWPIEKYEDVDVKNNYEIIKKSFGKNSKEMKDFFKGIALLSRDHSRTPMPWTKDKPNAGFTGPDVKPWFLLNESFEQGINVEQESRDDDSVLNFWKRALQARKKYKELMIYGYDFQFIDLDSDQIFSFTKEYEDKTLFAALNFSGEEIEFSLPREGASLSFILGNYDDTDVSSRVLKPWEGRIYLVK
Description: All enzymes and para-nitrophenyl substrates were purchased from Sigma. Enzymes were assayed at 27 °C in citric acid (0.1 M)/disodium hydrogen phosphate (0.2 M) buffers at the optimum pH for the enzyme. The incubation mixture consisted of […] of 1 mg/mL aqueous solution of extract and […] of the appropriate 5 μM para-nitrophenyl substrate made up in buffer at the optimum pH for the enzyme. […] Assays were carried out in triplicate, and the values given are means of the three replicates per assay. All reactions were run in water.

[16] = tested on: β-D-glucanase (T. Longibrachiatum); test: Glycosidase inhibition (Table 2 panel); format: biochemical; settings: at 100 μM
[17] = tested on: α-D-glucosidase (rat intestine); test: Glycosidase inhibition (Table 3 panel); format: biochemical; settings: 1 mg/mL aqueous solution; run in water
Description: as §1

[18] = tested on: N-acetyl-β-D-hexosaminidase (rat intestine); test: Glycosidase inhibition (Table 3 panel); format: biochemical; settings: 1 mg/mL aqueous solution; run in water
Description: as §1

[19] = tested on: β-D-glucosidase (human lysosome); test: Glycosidase inhibition (Table 2 panel); format: biochemical; settings: at 100 μM
[20] = tested on: α-D-glucosidase (human lysosome); test: Glycosidase inhibition (Table 2 panel); format: biochemical; settings: at 100 μM
[21] = tested on: β-D-galactosidase (E. coli); test: Glycosidase inhibition (Table 2 panel); format: biochemical; settings: at 100 μM

Row | Molecule | Percentage inhibition β-D-Glucosidase Almond [1] [%] | Percentage inhibition α-D-Mannosidase Jack Bean [2] [%] | Percentage inhibition β-D-Glucuronidase Bovine Liver [3] [%] | Percentage inhibition N-Acetyl-β-D-glucosaminidase Bovine Kidney [4] [%] | Sample Appearance [5] | Inhibition over the glycosidases of Table 3 [6] | inhibition at 25 µM ([7]; Homo sapiens, MCF-10A) [%] | inhibition % Trehalase Porcine Kidney ([8]; at 100 μM) | inhibition % α-L-Fucosidase Bovine Kidney ([9]; at 100 μM) | inhibition % α-L-Rhamnosidase P. decumbens ([10]; at 100 μM) | inhibition at 100 µM ([11]; at 100 μM) [%] | inhibition % α-D-Glucosidase Rat Intestinal Maltase ([12]; at 100 μM) | inhibition at 100 µM ([13]; at 100 μM) [%] | inhibition % β-D-Glucuronidase Bovine Liver ([14]; at 100 μM) | DOSE SCREEN percentage (%) cell growth inhibition MCF10A Breast (normal) [7] | Percentage inhibition α-D-Glucosidase Yeast [15] [%] | inhibition % Trehalase Porcine Kidney ([8]; at 1000 μM) | inhibition % α-L-Fucosidase Bovine Kidney ([9]; at 1000 μM) | inhibition % α-L-Rhamnosidase P. decumbens ([10]; at 1000 μM) | inhibition % α-D-Glucosidase Rat Intestinal Maltase ([12]; at 1000 μM) | further results
1 | N[C@@H](Cc1ccc(B(O)O)cc1)C(=O)O [BPA, 4-borono-L-phenylalanine, reference compound] | 3.9 | 0.6 | −0.7 | 6.7 | Some in solution with undissolved sediment | < 30% | 4 | ^cNI ^d(0%) | ^cNI ^d(0%) | ^cNI ^d(0%) | 0 | ^cNI ^d(0%) | 10.9 | ^cNI ^d(7.4%) |  |  |  |  |  |  | 
2 | Borocaptate sodium [BSH, reference compound] | 47.3 | −18.7 | 31.6 | 37.1 | In solution | 31.6–65.9% |  |  |  |  |  |  |  |  | * 8 ± 3% | 59 | ^aNI ^b(4.2%) | ^aNI ^b(0%) | ^aNI ^b(0.2%) | ^aNI ^b(0%) | inhibition % β-D-Glucosidase Bovine Liver ([11]; at 1000 μM): ^aNI ^b(15%); inhibition % β-D-Galactosidase Bovine Liver ([13]; at 1000 μM): ^aNI ^b(0%); inhibition % β-D-Glucuronidase Bovine Liver ([14]; at 1000 μM): ^aNI ^b(19.6%)
3 | N[C@@H](Cc1ccc(B(O)O)cc1)C(=O)O [^10B-BPA, reference compound] | 3 | −0.7 | −1 | 6.3 | Some in solution with undissolved sediment | < 30% |  | ^cNI ^d(0%) | ^cNI ^d(0%) | ^cNI ^d(0%) |  | ^cNI ^d(0%) |  | ^cNI ^d(0%) | * <0% | 3.4 |  |  |  |  | inhibition % β-D-Glucosidase Bovine Liver ([11]; at 100 μM): ^cNI ^d(14.2%); inhibition % β-D-Galactosidase Bovine Liver ([13]; at 100 μM): ^cNI ^d(0%)
4 | CC1(C)O[C@H]2O[C@H]3[C@@H]([C@H]2O1)N(Cc1cccc(B2OC(C)(C)C(C)(C)O2)c1)C[C@H]3O [meta 2, N-(3-Methylphenylboronic acid pinacol ester)-3,6-dideoxy-3,6-imino-1,2-O-isopropylidene-α-D-gulofuranose] | 13.2 |  | 9.9 |  | In solution |  | 6 ± 4 | ^cNI ^d(0%) |  | ^cNI ^d(1.5%) | 0 | ^cNI ^d(5.8%) | 2.2 | ^cNI ^d(1.4%) |  | 7.9 | ^aNI ^b(5.8%) | ^aNI ^b(3.8%) | ^aNI ^b(0%) | ^aNI ^b(12.4%) | inhibition % β-D-Glucanase T. Longibrachiatum [16]: ^cNI ^d(3.9%); Percentage inhibition α-D-Glucosidase Rat Intestine [17]: 16.8%; Percentage inhibition N-Acetyl-β-D-Hexosaminidase Rat Intestine [18]: 11.5%; inhibition % β-D-Glucosidase Human Lysosome [19]: ^cNI ^d(0%); GI50 ([7]; Homo sapiens, MCF-10A, read-out: DOSE RESPONSE GI50 MCF10A Breast (normal)): > 50 µM; inhibition at 1000 µg/mL (stock) ([15]; read-out: Percentage inhibition α-D-Glucosidase Yeast): 9.3%; inhibition % α-D-Glucosidase Human Lysosome [20]: ^cNI ^d(3.9%); inhibition at 1000 µM ([11]; at 1000 μM): 32.7%; inhibition at 1000 µM ([13]; at 1000 μM): 41.8%; inhibition % β-D-Glucuronidase Bovine Liver ([14]; at 1000 μM): ^aNI ^b(10.7%); inhibition % β-D-Galactosidase E. coli [21]: ^cNI ^d(0%)
